Assay results: patent publication US12492163B2, “9H-fluorene derivatives or their pharmaceutically acceptable salts” (priority 2020, dated 2025)

Experiments:
Albino Swiss CD-1 mice = experiment: Passive avoidance task (scopolamine-induced memory disorders); type: in vivo, Mus musculus; conditions: scopolamine 1 mg/kg s.c.
Description: The research was conducted at the Department of Pharmacodynamics, Faculty of Pharmacy, Jagiellonian University in Krakow. All procedures were approved by the 1st and 2nd Local Ethics Committee for Animal Experiments in Krakow (consent no. 53/2017 and 250/2019) and were performed in accordance with the applicable European Union regulation (86/609/EEC). Males of two different strains of domestic mice (Mus musculus) were used in the study: Albino Swiss CD-1 (body weight approx. 20-24 g, age approx. 6 weeks) and C57BL/6J mice (body weight approx. 18-22 g, age approx. 6 weeks). The CD-1 strain was used for the passive avoidance, spontaneous mobility and rotating rod tests, while the C57BL/6J mice were used for the Morris water maze and the Barnes' maze. The animals were kept in standard, appropriately sized cages, divided into groups with a maximum of 10 animals. The animals in the study groups in the learning phase were intraperitoneally administered the test compound 1 h before the start of the experiments (doses in the preliminary test, i.e. in the passive avoidance test: 10, 30 and 60 mg/kg), and 30 minutes later, 1 mg/kg of scopolamine subcutaneously. Two control groups were used in the tests to assess the procognitive activity of JT-3—one of them received saline and the other saline and scopolamine.
The test assesses contextual memory. The apparatus consists of two chambers (white: 26 cm×26 cm×34 cm; dark: 13 cm×7.5 cm×7.5 cm) separated by a door. The test consists of a two-day procedure. On the first day (acquisition phase), test compound or saline was administered to the animals 1 h prior to testing (i.p. administration). In order to induce memory disorders, scopolamine (1 mg/kg, s.c.) was also administered after 30 min. On the first day of testing, the mouse was placed in the white compartment. […] The latency of entry into the dark chamber was measured. […] After 30 s the door between the compartments was opened and, similarly to the acquisition phase, the latency time of entering the dark compartment was measured. […]

C57BL/6J mice = experiment: Morris water maze test (scopolamine); type: in vivo, Mus musculus
Description: The research was conducted at the Department of Pharmacodynamics, Faculty of Pharmacy, Jagiellonian University in Krakow. All procedures were approved by the 1st and 2nd Local Ethics Committee for Animal Experiments in Krakow (consent no. 53/2017 and 250/2019) and were performed in accordance with the applicable European Union regulation (86/609/EEC). Males of two different strains of domestic mice (Mus musculus) were used in the study: Albino Swiss CD-1 (body weight approx. 20-24 g, age approx. 6 weeks) and C57BL/6J mice (body weight approx. 18-22 g, age approx. 6 weeks). […]
At this stage of the study, each mouse underwent four trials every day (trial interval approx. 1 hour). […] During the acquisition (learning) phase, the time and distance traveled to find the platform were measured. Additionally, the trajectories of movement in the pool were analyzed. […] The latency of finding the place where the platform was previously (during the acquisition/learning phase) was measured, as well as the number of crossings through the zone, where the platform was in the acquisition phase. In addition, the total residence time and distance traveled in the relevant quadrant of the pool (in the NW zone where the platform was at the time of acquisition) were measured, as well as the speed and total distance traveled by the animal during the 60 s of the test. […]

mGAT2 = mGAT2 (Mus musculus (Mouse), UniProt P31651); experiment: [3H]GABA uptake inhibition, mGAT2 in HEK293 cells; type: cell-based; conditions: inhibitor at 100 μM; remaining reuptake
mGAT2, sequence (P31651 whole entry): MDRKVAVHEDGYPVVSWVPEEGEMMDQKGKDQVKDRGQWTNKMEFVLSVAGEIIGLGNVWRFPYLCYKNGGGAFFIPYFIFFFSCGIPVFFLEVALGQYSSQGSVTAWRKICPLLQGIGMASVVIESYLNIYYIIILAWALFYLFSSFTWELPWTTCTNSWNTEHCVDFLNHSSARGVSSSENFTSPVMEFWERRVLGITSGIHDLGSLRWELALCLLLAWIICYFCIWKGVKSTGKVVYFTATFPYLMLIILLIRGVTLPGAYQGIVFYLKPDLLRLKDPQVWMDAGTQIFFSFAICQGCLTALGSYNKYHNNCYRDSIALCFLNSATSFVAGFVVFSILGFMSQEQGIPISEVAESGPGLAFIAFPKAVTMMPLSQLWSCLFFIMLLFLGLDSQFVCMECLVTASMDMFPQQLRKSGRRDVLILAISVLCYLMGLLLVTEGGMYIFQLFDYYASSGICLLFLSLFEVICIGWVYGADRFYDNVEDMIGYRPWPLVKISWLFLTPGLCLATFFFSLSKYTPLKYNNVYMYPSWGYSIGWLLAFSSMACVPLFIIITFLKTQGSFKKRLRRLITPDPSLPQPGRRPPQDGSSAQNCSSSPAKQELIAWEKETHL
Description: (§1) Exemplary compounds according to the invention were screened at the Ludwig-Maximilian University of Munich to determine the inhibitory ability towards four mouse GAT transporters (mGAT1-mGAT4). […] The biological material was stably transfected human embryonic kidney HEK293 cells, expressing genes to the appropriate transporters. The generated radioactivity was measured with a liquid scintillation counter. […] These determinations were made according to the procedure described in detail in A. Kragler, G. Höfner, K. T. Wanner, Novel parent structures for inhibitors of the murine GABA transporters mGAT3 and mGAT4, Eur. J. Pharmacol. 519 (2005) 43-47.

mGAT4 = mGAT4 (Mus musculus (Mouse), UniProt P31650); experiment: [3H]GABA uptake inhibition, mGAT4 in HEK293 cells; type: cell-based; conditions: GABA reuptake
mGAT4, sequence (P31650 whole entry): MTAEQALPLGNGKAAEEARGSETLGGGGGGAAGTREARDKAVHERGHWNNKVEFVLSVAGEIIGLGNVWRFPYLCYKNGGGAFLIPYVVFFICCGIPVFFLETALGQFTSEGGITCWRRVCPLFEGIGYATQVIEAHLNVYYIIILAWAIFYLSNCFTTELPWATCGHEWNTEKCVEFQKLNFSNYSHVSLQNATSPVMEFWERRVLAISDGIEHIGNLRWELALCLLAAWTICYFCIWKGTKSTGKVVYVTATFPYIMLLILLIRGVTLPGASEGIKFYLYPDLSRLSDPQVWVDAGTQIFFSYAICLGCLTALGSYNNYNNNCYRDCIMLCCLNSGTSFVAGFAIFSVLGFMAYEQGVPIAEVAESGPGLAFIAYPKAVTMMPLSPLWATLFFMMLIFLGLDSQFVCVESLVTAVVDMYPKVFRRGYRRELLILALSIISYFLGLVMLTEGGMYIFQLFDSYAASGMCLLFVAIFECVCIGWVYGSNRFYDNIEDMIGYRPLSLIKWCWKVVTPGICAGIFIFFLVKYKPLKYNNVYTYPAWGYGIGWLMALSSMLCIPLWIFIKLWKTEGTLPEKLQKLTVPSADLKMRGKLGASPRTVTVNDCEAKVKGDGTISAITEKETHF
Description: as §1

With `O[C@H](CNCC1CC1)[C@H](Cc1ccccc1)NC1c2ccccc2-c2ccccc21` [JT-3, (2R,3S)-3-((9H-fluoren-9-yl)amino)-1-((cyclopropylmethyl)amino)-4-phenylbutan-2-ol] the “latency of entry into the dark compartment, recall phase (day 2) vs scopolamine control” value (from here on “latency … (day 2) vs scopolamine control”) (Albino Swiss CD-1 mice; 10 mg/kg i.p., p<0.01) was “statistically significant difference”, the “latency … (day 2) vs scopolamine control” value (Albino Swiss CD-1 mice; 30 mg/kg i.p.) was “not active” and the “latency … (day 2) vs scopolamine control” value (Albino Swiss CD-1 mice; 60 mg/kg i.p.) was “not active”. For the same compound, the “latency to find the hidden platform, acquisition phase vs scopolamine control” value (C57BL/6J mice; 10 mg/kg i.p., fifth day of the test, p<0.01) was “statistically significant difference”, the “recall phase parameters (time, crossings, distance, entries in NW zone)” value (C57BL/6J mice; seventh day, 10 mg/kg i.p. on days 1-6) was “did not affect any of the parameters studied” and the “percentage of [3H]GABA reuptake retained, mGAT2” value (mGAT2) was 51%. The “pIC50 (+/−SEM) mGAT4” value (mGAT4) was 5.11 +/− 0.02.
